The values that follow come from the supplement of paper PMC10307832.

Test in all cases: relative viability (nuclei count vs DMSO), 5 days (fraction); higher = more cells survive
Compound in one test: CC1(C)CCC(CN2CCN(c3ccc(C(=O)NS(=O)(=O)c4ccc(NCC5CCOCC5)c([N+](=O)[O-])c4)c(Oc4cnc5[nH]ccc5c4)c3)CC2)=C(c2ccc(Cl)cc2)C1 [Venetoclax]
An outline of the steps: (§1)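 Lung cancer cell lines were seeded into 1536-well plates, kept overnight at 37 °C and pinned with five library-drug doses (not always all listed) spaced by √10. After 5 days, nuclei were Hoechst-stained, imaged at 4× and counted with MetaXpress. Viability is treated-well nuclei over vehicle-well nuclei, taken as a median across plates. Plates needed control CV below 25% and at least one doubling.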

Compound in a further test: Cn1cnc2c(F)c(Nc3ccc(Br)cc3Cl)c(C(=O)NOCCO)cc21 [Selumetinib]
An outline of the steps: as §1

Compound in the test “Selumetinib + Navitoclax”: Cn1cnc2c(F)c(Nc3ccc(Br)cc3Cl)c(C(=O)NOCCO)cc21 [Selumetinib] + CC1(C)CCC(c2ccc(Cl)cc2)=C(CN2CCN(c3ccc(C(=O)NS(=O)(=O)c4ccc(N[C@H](CCN5CCOCC5)CSc5ccccc5)c(S(=O)(=O)C(F)(F)F)c4)cc3)CC2)C1 [Navitoclax] (partner 0.5 µM)
The essentials: (§2)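 Lung cancer cell lines in 1536-well plates got either a single drug or a fixed anchor-drug dose together with five library-drug doses (not always all listed) in √10 steps, by pin tool, on the day after seeding. Nuclei were counted after 5 days, and relative viability is the treated-to-vehicle ratio of nuclei counts. Values are medians of duplicate plates.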

Compound in the test “Venetoclax + Trametinib”: CC1(C)CCC(CN2CCN(c3ccc(C(=O)NS(=O)(=O)c4ccc(NCC5CCOCC5)c([N+](=O)[O-])c4)c(Oc4cnc5[nH]ccc5c4)c3)CC2)=C(c2ccc(Cl)cc2)C1 [Venetoclax] + CC(=O)Nc1cccc(-n2c(=O)n(C3CC3)c(=O)c3c(Nc4ccc(I)cc4F)n(C)c(=O)c(C)c32)c1 [Trametinib] (partner 0.02 µM)
An outline of the steps:
as §2

On to NCI-H1651, for which the relative viability in the test with Venetoclax (0.01 µM) is 1.05; with Venetoclax (0.03162 µM), 1.02; with Venetoclax (0.1 µM), 0.971; with Venetoclax (0.3162 µM), 0.926; in the test with Venetoclax (1 µM), 0.904; with Selumetinib (0.02 µM) it was 1.03. In addition, the relative viability in the test with Selumetinib (0.06325 µM) came out at 0.913; with Selumetinib (0.2 µM), 0.93; in the test with Selumetinib (0.6325 µM), 0.963; with Selumetinib + Navitoclax (first compound 0.02 µM) it was 1.1; with Selumetinib + Navitoclax (first compound 0.06325 µM), 0.941; in the test with Selumetinib + Navitoclax (first compound 0.2 µM), 0.887. The relative viability with Selumetinib + Navitoclax (first compound 0.6325 µM) amounted to 0.846; with Venetoclax + Trametinib (first compound 0.01 µM) it was 0.88; in the test with Venetoclax + Trametinib (first compound 0.03162 µM) it was 0.89; in the test with Venetoclax + Trametinib (first compound 0.1 µM) it was 0.804; with Venetoclax + Trametinib (first compound 0.3162 µM) it was 0.838; in the test with Venetoclax + Trametinib (first compound 1 µM), 0.926.
Take NCI-H2405: the relative viability with Venetoclax (0.01 µM) worked out at 1.03; in the test with Venetoclax (0.03162 µM), 1.14; with Venetoclax (0.1 µM), 0.978; with Venetoclax (0.3162 µM) it was 0.996; with Venetoclax (1 µM), 0.914; in the test with Selumetinib (0.02 µM), 1.02. The relative viability with Selumetinib (0.06325 µM) came out at 0.923; in the test with Selumetinib (0.2 µM), 0.861; with Selumetinib (0.6325 µM), 0.686; in the test with Selumetinib + Navitoclax (first compound 0.02 µM), 0.771; in the test with Selumetinib + Navitoclax (first compound 0.06325 µM), 0.636; with Selumetinib + Navitoclax (first compound 0.2 µM), 0.525. The relative viability in the test with Selumetinib + Navitoclax (first compound 0.6325 µM) is 0.37; with Venetoclax + Trametinib (first compound 0.01 µM), 0.769; with Venetoclax + Trametinib (first compound 0.03162 µM), 0.603; in the test with Venetoclax + Trametinib (first compound 0.1 µM) it was 0.584; with Venetoclax + Trametinib (first compound 0.3162 µM) it was 0.646; in the test with Venetoclax + Trametinib (first compound 1 µM), 0.591.
For the cell line LU99A, the relative viability was found to be 1.02 with Venetoclax (0.01 µM); 1.01 in the test with Venetoclax (0.03162 µM); 0.84 with Venetoclax (0.1 µM); 0.987 in the test with Venetoclax (0.3162 µM); 0.994 with Venetoclax (1 µM); 1.01 with Selumetinib (0.02 µM). Besides, the relative viability with Selumetinib (0.06325 µM) worked out at 1.05; with Selumetinib (0.2 µM), 0.91; in the test with Selumetinib (0.6325 µM), 0.912; in the test with Selumetinib + Navitoclax (first compound 0.02 µM), 0.856; with Selumetinib + Navitoclax (first compound 0.06325 µM), 0.816; with Selumetinib + Navitoclax (first compound 0.2 µM), 0.928. In addition, the relative viability in the test with Selumetinib + Navitoclax (first compound 0.6325 µM) turned out to be 0.563; with Venetoclax + Trametinib (first compound 0.01 µM), 0.485; with Venetoclax + Trametinib (first compound 0.03162 µM) it was 0.611; with Venetoclax + Trametinib (first compound 0.1 µM), 0.482; with Venetoclax + Trametinib (first compound 0.3162 µM), 0.566; in the test with Venetoclax + Trametinib (first compound 1 µM), 0.596.
Take H3255: the relative viability in the test with Venetoclax (0.01 µM) worked out at 1; with Venetoclax (0.03162 µM), 1.04; with Venetoclax (0.1 µM), 0.98; with Venetoclax (0.3162 µM), 1.01; with Venetoclax (1 µM), 0.933; with Selumetinib (0.02 µM), 0.983. Moreover, the relative viability with Selumetinib (0.06325 µM) was 0.914; in the test with Selumetinib (0.2 µM), 0.944; with Selumetinib (0.6325 µM) it was 0.93; in the test with Selumetinib + Navitoclax (first compound 0.02 µM), 0.428; in the test with Selumetinib + Navitoclax (first compound 0.06325 µM), 0.487; in the test with Selumetinib + Navitoclax (first compound 0.2 µM), 0.342. The relative viability with Selumetinib + Navitoclax (first compound 0.6325 µM) is 0.436; in the test with Venetoclax + Trametinib (first compound 0.01 µM), 0.586; in the test with Venetoclax + Trametinib (first compound 0.03162 µM), 0.648; in the test with Venetoclax + Trametinib (first compound 0.1 µM), 0.603; with Venetoclax + Trametinib (first compound 0.3162 µM) it was 0.517; in the test with Venetoclax + Trametinib (first compound 1 µM) it was 0.582.
For NCI-H1993, the relative viability was 0.892 with Venetoclax (0.01 µM); 0.999 with Venetoclax (0.03162 µM); 0.904 with Venetoclax (0.1 µM); 0.91 in the test with Venetoclax (0.3162 µM); 0.838 in the test with Venetoclax (1 µM); 0.794 with Selumetinib (0.02 µM). Besides, the relative viability is 0.727 with Selumetinib (0.06325 µM); 0.728 with Selumetinib (0.2 µM); 0.762 with Selumetinib (0.6325 µM); 0.801 with Selumetinib + Navitoclax (first compound 0.02 µM); 0.79 with Selumetinib + Navitoclax (first compound 0.06325 µM); 0.749 with Selumetinib + Navitoclax (first compound 0.2 µM). Besides, the relative viability in the test with Selumetinib + Navitoclax (first compound 0.6325 µM) turned out to be 0.648; with Venetoclax + Trametinib (first compound 0.01 µM), 0.509; with Venetoclax + Trametinib (first compound 0.03162 µM) it was 0.518; with Venetoclax + Trametinib (first compound 0.1 µM), 0.506; with Venetoclax + Trametinib (first compound 0.3162 µM), 0.591; in the test with Venetoclax + Trametinib (first compound 1 µM), 0.535.
Take NCI-H322M: the relative viability in the test with Venetoclax (0.01 µM) was determined as 1.05; in the test with Venetoclax (0.03162 µM) it was 0.982; in the test with Venetoclax (0.1 µM), 0.899; with Venetoclax (0.3162 µM), 1.06; in the test with Venetoclax (1 µM), 0.938; in the test with Selumetinib (0.02 µM), 0.83. Besides, the relative viability was determined as 0.681 with Selumetinib (0.06325 µM); 0.651 in the test with Selumetinib (0.2 µM); 0.624 with Selumetinib (0.6325 µM); 1.14 in the test with Selumetinib + Navitoclax (first compound 0.02 µM); 0.795 with Selumetinib + Navitoclax (first compound 0.06325 µM); 1.05 in the test with Selumetinib + Navitoclax (first compound 0.2 µM). For the same cell line, the relative viability is 1.04 in the test with Selumetinib + Navitoclax (first compound 0.6325 µM); 0.528 with Venetoclax + Trametinib (first compound 0.01 µM); 0.519 with Venetoclax + Trametinib (first compound 0.03162 µM); 0.436 with Venetoclax + Trametinib (first compound 0.1 µM); 0.534 with Venetoclax + Trametinib (first compound 0.3162 µM); 0.562 with Venetoclax + Trametinib (first compound 1 µM).
